Reference: PubChem BioAssay (NCI)
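Exposure lasted 48 hours, with cells grown in 96-well plates and compounds tested at five concentrations. Here, GI50 denotes the concentration required for 50% inhibition of growth. The concentration for full growth arrest is given as TGI.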

Experiments:
Test in all cases: NCI-60 cell line screen, 48 h
OVCAR-3 ovarian = system: OVCAR-3 ovarian
SK-MEL-28 melanoma = system: SK-MEL-28 melanoma
HCT-116 colon = system: HCT-116 colon
HCC-2998 colon = system: HCC-2998 colon
SN12C renal = system: SN12C renal
PC-3 prostate = system: PC-3 prostate
HCT-15 colon = system: HCT-15 colon
OVCAR-5 ovarian = system: OVCAR-5 ovarian
SNB-19 CNS = system: SNB-19 CNS
IGROV1 ovarian = system: IGROV1 ovarian
HT29 colon = system: HT29 colon
LOX IMVI melanoma = system: LOX IMVI melanoma
U251 CNS = system: U251 CNS
SK-OV-3 ovarian = system: SK-OV-3 ovarian
SW-620 colon = system: SW-620 colon
OVCAR-8 ovarian = system: OVCAR-8 ovarian
M14 melanoma = system: M14 melanoma
MOLT-4 leukemia = system: MOLT-4 leukemia
UO-31 renal = system: UO-31 renal
KM12 colon = system: KM12 colon
CAKI-1 renal = system: CAKI-1 renal
UACC-257 melanoma = system: UACC-257 melanoma
SK-MEL-5 melanoma = system: SK-MEL-5 melanoma
ACHN renal = system: ACHN renal
TK-10 renal = system: TK-10 renal
RXF 393 renal = system: RXF 393 renal
DU-145 prostate = system: DU-145 prostate
NCI-H522 lung = system: NCI-H522 lung
NCI-H460 lung = system: NCI-H460 lung
SK-MEL-2 melanoma = system: SK-MEL-2 melanoma
NCI-H23 lung = system: NCI-H23 lung
HL-60(TB) leukemia = system: HL-60(TB) leukemia
NCI-H226 lung = system: NCI-H226 lung
MDA-MB-231 breast = system: MDA-MB-231 breast
A549 NSCLC = system: A549 NSCLC
K-562 leukemia = system: K-562 leukemia
SR leukemia = system: SR leukemia
UACC-62 melanoma = system: UACC-62 melanoma
EKVX NSCLC = system: EKVX NSCLC
MDA-MB-435 = system: MDA-MB-435
SF-295 CNS = system: SF-295 CNS
T-47D breast = system: T-47D breast
OVCAR-4 ovarian = system: OVCAR-4 ovarian
NCI/ADR-RES ovarian = system: NCI/ADR-RES ovarian
HOP-62 NSCLC = system: HOP-62 NSCLC
786-0 renal = system: 786-0 renal
HOP-92 NSCLC = system: HOP-92 NSCLC
CCRF-CEM leukemia = system: CCRF-CEM leukemia
SF-268 CNS = system: SF-268 CNS
COLO 205 colon = system: COLO 205 colon

## CCCN1C(=O)/C(=C/c2ccc(O)cc2)SC1=Nc1ccccc1
OVCAR-3 ovarian
  GI50: 17.8 µM
  TGI: 33.8 µM
SK-MEL-28 melanoma
  GI50: 27.7 µM
  TGI: 50.9 µM
HCT-116 colon
  GI50: 17.5 µM
  TGI: 31.3 µM
HCC-2998 colon
  GI50: 22.9 µM
  TGI: 47.4 µM
SN12C renal
  GI50: 18.4 µM
  TGI: 35.5 µM
PC-3 prostate
  GI50: 28.9 µM
  TGI: 59.8 µM
HCT-15 colon
  GI50: 16.9 µM
  TGI: 37.5 µM
OVCAR-5 ovarian
  GI50: 21.7 µM
  TGI: 44.2 µM
SNB-19 CNS
  GI50: 21.1 µM
  TGI: 46.5 µM
IGROV1 ovarian
  GI50: 38 µM
  TGI: > 100 µM
HT29 colon
  GI50: 33.5 µM
  TGI: 86.7 µM
LOX IMVI melanoma
  GI50: 14.7 µM
  TGI: 29.3 µM
U251 CNS
  GI50: 15.6 µM
  TGI: 29 µM
SK-OV-3 ovarian
  GI50: 18 µM
  TGI: 40.8 µM
SW-620 colon
  GI50: 37.8 µM
  TGI: > 100 µM
OVCAR-8 ovarian
  GI50: 25.8 µM
  TGI: 68.8 µM
M14 melanoma
  GI50: 48.7 µM
  TGI: > 100 µM
MOLT-4 leukemia
  GI50: > 100 µM
  TGI: > 100 µM
UO-31 renal
  GI50: 38.3 µM
  TGI: > 100 µM
KM12 colon
  GI50: 19.9 µM
  TGI: 55.3 µM
CAKI-1 renal
  GI50: 21.6 µM
  TGI: 38.8 µM
UACC-257 melanoma
  GI50: > 100 µM
  TGI: > 100 µM
SK-MEL-5 melanoma
  GI50: 22.8 µM
  TGI: 46 µM
ACHN renal
  GI50: 18.2 µM
  TGI: 34.9 µM
TK-10 renal
  GI50: 18.6 µM
  TGI: 38.5 µM
RXF 393 renal
  GI50: 23.2 µM
  TGI: 51.4 µM
DU-145 prostate
  GI50: 17.4 µM
  TGI: 40.8 µM
NCI-H522 lung
  GI50: 39.7 µM
  TGI: > 100 µM
NCI-H460 lung
  GI50: 15.2 µM
  TGI: 29.9 µM
SK-MEL-2 melanoma
  GI50: 51 µM
  TGI: > 100 µM
NCI-H23 lung
  GI50: 34.1 µM
  TGI: 93 µM
HL-60(TB) leukemia
  GI50: > 100 µM
  TGI: > 100 µM
NCI-H226 lung
  GI50: 30.3 µM
  TGI: 54.1 µM
MDA-MB-231 breast
  GI50: 16 µM
  TGI: 36.6 µM
A549 NSCLC
  GI50: 23.9 µM
  TGI: 58.2 µM
K-562 leukemia
  GI50: 92.1 µM
  TGI: > 100 µM
SR leukemia
  GI50: 14 µM
  TGI: > 100 µM
UACC-62 melanoma
  GI50: 21 µM
  TGI: 45.3 µM
EKVX NSCLC
  GI50: 14.5 µM
  TGI: 32.1 µM
MDA-MB-435
  GI50: 21.6 µM
  TGI: 41.5 µM
SF-295 CNS
  GI50: 27.9 µM
  TGI: 68.7 µM
T-47D breast
  GI50: 22.5 µM
  TGI: 50.8 µM
OVCAR-4 ovarian
  GI50: 25.2 µM
  TGI: 49.5 µM
NCI/ADR-RES ovarian
  GI50: 20.4 µM
  TGI: 36.4 µM
HOP-62 NSCLC
  GI50: 21.2 µM
  TGI: 37.9 µM
786-0 renal
  GI50: 20.5 µM
  TGI: 36.9 µM
HOP-92 NSCLC
  GI50: 20.3 µM
  TGI: 46.5 µM
CCRF-CEM leukemia
  GI50: > 100 µM
  TGI: > 100 µM
SF-268 CNS
  GI50: 17.1 µM
  TGI: 32.4 µM
COLO 205 colon
  GI50: 22.7 µM
  TGI: 51.3 µM
